Where only a bound is given, the exact number is not on record here.

In the first experiment the target is T1, human FAAH (Homo sapiens, UniProt O00519).
T1 construct: host or cells: COS-7 cells, transient transfection (FuGENE 6); 13,000 g membrane fraction solubilised in 1% Triton X-100
T1 sequence (O00519 1-579): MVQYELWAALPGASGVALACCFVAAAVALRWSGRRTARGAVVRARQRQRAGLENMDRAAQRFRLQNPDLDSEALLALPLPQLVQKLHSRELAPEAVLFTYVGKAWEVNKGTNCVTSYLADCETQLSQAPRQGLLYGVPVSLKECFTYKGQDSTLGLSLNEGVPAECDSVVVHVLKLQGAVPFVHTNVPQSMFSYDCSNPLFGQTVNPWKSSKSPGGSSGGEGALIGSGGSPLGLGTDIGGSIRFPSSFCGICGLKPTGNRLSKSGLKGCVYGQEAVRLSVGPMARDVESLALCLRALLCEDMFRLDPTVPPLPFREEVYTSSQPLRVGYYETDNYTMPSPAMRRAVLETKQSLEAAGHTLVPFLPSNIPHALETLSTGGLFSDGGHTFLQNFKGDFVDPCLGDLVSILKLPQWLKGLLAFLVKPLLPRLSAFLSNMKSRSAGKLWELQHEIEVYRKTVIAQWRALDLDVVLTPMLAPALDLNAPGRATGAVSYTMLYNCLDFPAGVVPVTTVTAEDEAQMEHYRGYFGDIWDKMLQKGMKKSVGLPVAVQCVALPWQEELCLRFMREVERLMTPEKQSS
Kind of experiment: Human FAAH biochemical inhibition assay (AMC arachidonoyl amide fluorescence). The following applies: Table A, read-out: Activity (Ki) of other boronic acids tested, Table A. The method in brief: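 Human FAAH from solubilized membranes of transiently transfected COS-7 cells, 0.1 mg/mL in 50 mM Hepes pH 7.5, 1 mM EDTA, 0.2% Triton X-100, preincubated 30 min at room temperature with 3-fold serially diluted inhibitor. Hydrolysis of AMC arachidonoyl amide read by fluorescence (ex 355/em 460 nm). Data fitted to single-site competitive inhibition with Km fixed at 9 μM.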
The term Ki denotes the dissociation constant of the complex between target and ligand, obtained from inhibition or displacement. On to `OCCCc1ccc(B(O)O)cc1`, for which the Ki lay in the range of 100 to 1000 nM.

In the case of `O=C(Nc1ccccn1)c1ccc(B(O)O)cc1`, the Ki lay within 10 to 100 nM.

Regarding `O=C(O)CCc1ccc(B(O)O)cc1`, the Ki was greater than 1000 nM.

The same experiment, now with this note: class given in each Example, read-out: Activity (Ki, inhibition of human FAAH).
With `CCCCCc1nnc(-c2ccc(B(O)O)cc2Cl)o1` [Compound 29], the Ki was no more than 10 nM.

Regarding `OB1c2sccc2C=NN1Cc1ccccc1` [Compound 256], the Ki is greater than 1000 nM.

In the case of `CN(Cc1ccccc1)Cc1cc(OCc2ccccc2)ccc1B(O)O` [Compound 110], the Ki lay within 100 to 1000 nM.

Regarding `CC(C)(C)OC(=O)N1CCN(c2ccc(B(O)O)cc2)CC1` [Compound 318], the Ki was 10 to 100 nM.

On to `OB(O)c1ccc(-c2nnc(Cc3ccccc3)o2)cc1F` [Compound 69], for which the Ki was 10 to 100 nM.

On to `OB(O)c1ccc(-c2nc(-c3ccccc3)c[nH]2)cc1F` [Compound 7], for which the Ki was greater than 1000 nM.

`CN(CCc1ccc(B(O)O)c(F)c1)C(=O)OC(C)(C)C` [Compound 311]: the Ki is no more than 10 nM.

On to `OB(O)c1ccc(-c2nnc(-c3cccc(C(F)(F)F)c3)s2)cc1` [Compound 48], for which the Ki was no more than 10 nM.

With `CCOc1nnc(-c2ccccc2B(O)O)o1` [Compound 286], the Ki was greater than 1000 nM.

For `OB1c2cc3c(cc2C=NN1Cc1ccccc1)OCO3` [Compound 254], the Ki is greater than 1000 nM.

As for `Cc1nnc(-c2cc(OCCc3ccccc3)ccc2B(O)O)o1` [Compound 19], the Ki is no more than 10 nM.

As for `OB(O)c1ccc(-c2cccc3[nH]ccc23)cc1F` [Compound 230], the Ki is 10 to 100 nM.

As for `OB(O)c1ccc(-c2ncc(-c3ccccc3)s2)cc1F` [Compound 3], the inhibition constant Ki is greater than 1000 nM.

As to `OB(O)c1ccc(-c2nnc(-c3cccc(C(F)(F)F)c3)o2)cc1` [Compound 47], the Ki was no more than 10 nM.

For the molecule `OB(O)c1ccc(-c2cc(-c3ccccc3)no2)cc1` [Compound 156], the Ki is no more than 10 nM.

As for `CC(C)CCCc1nnc(-c2ccc(B(O)O)cc2)o1` [Compound 38], the Ki was no more than 10 nM.

As to `OB(O)c1ccc2nc(N3CCCc4ccccc43)ccc2c1` [Compound 207], the Ki lay within 10 to 100 nM.

Regarding `OB(O)c1ccccc1-c1nnc(-c2ccccc2)o1` [Compound 31], the Ki was greater than 1000 nM.

Turning to `COC(=O)/C=C/c1ccsc1B(O)O` [Compound 101], the Ki fell in the range of 100 to 1000 nM.

For the molecule `O=C(CCN1C(=O)C=CC1=O)N/N=C/c1cc(OCCc2ccccc2)ccc1B(O)O` [Compound 119], the Ki is no more than 10 nM.

For `CCCCC(C)c1nnc(-c2ccc(B(O)O)cc2)o1` (centres unmarked) [Compound 34], the Ki was no more than 10 nM.

As for `CC(C)CCn1cc(-c2ccc(B(O)O)cc2)cn1` [Compound 222], the Ki is no more than 10 nM.

`CCCCCCc1nnc(-c2ccc(B(O)O)cc2)o1` [Compound 37]: the Ki is no more than 10 nM.

Turning to `OB(O)c1ccc([C@H]2OC[C@@H](c3ccccc3)CO2)cc1F` [Compound 174], the Ki was no more than 10 nM.

Take `OB(O)c1ccc2nc(Oc3cccnc3)ccc2c1` [Compound 209]: the Ki was no more than 10 nM.

Turning to `CC(C)(C)OC(=O)N1CCC(c2ccc(B(O)O)cc2)CC1` [Compound 233], the Ki was no more than 10 nM.

Regarding `CCOc1ccc2cc(B(O)O)ccc2n1` [Compound 203], the Ki is 10 to 100 nM.

As to `OB(O)c1ccc(-c2nnc(-c3cncc(F)c3)o2)cc1` [Compound 41], the Ki was in the range of 10 to 100 nM.

For the molecule `CCCC1(c2ccccc2)CC(c2ccc(B(O)O)cc2)=NO1` (centres unmarked) [Compound 163], the Ki lay within 100 to 1000 nM.

`OB(O)c1ccc2cn(CCc3ccccc3)nc2c1` [Compound 314]: the Ki was no more than 10 nM.

Take `CCCc1nnc(-c2cc(F)ccc2B(O)O)o1` [Compound 261]: the Ki is greater than 1000 nM.

As to `OB(O)c1ccc(-c2nnc(-c3cccc4c3OCCO4)o2)cc1` [Compound 43], the Ki was no more than 10 nM.

`OB(O)c1ccc(-c2nnc(-c3cccnc3)s2)cc1` [Compound 49]: the Ki was no more than 10 nM.

With `OB(O)c1cccc2cccc(COc3cccc(F)c3)c12` [Compound 151], the Ki is greater than 1000 nM.

On to `Cc1nc2cc(B(O)O)ccc2s1` [Compound 88], for which the Ki lay within 100 to 1000 nM.

Values taken from patent publication US8957049B2, “Inhibitors of fatty acid amide hydrolase” (Infinity Pharmaceuticals, Inc., priority 2008, dated 2015).
